Data on 41 molecules can be found in publication PMC6353850, “Supersensitive Odorant Receptor Underscores Pleiotropic Roles of Indoles in Mosquito Ecology” (Frontiers in Cellular Neuroscience, 2019).

Counter-ions that a name gives are not always drawn.

Sequence of AaegOR9 (Q178U6 whole entry): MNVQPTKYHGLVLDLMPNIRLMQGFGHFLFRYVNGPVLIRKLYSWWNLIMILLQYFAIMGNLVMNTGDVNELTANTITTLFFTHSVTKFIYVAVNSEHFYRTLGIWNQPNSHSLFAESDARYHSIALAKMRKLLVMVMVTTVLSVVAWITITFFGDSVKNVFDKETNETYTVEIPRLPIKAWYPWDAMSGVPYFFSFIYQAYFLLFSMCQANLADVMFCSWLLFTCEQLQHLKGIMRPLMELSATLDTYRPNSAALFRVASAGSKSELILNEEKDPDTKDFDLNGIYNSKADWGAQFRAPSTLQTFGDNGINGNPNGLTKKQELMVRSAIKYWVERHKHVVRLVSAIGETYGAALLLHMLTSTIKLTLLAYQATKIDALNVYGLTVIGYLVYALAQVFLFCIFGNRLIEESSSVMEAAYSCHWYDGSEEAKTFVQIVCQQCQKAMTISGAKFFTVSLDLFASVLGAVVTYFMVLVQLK
Sequence of AaegOR9 (Q177X5 entry or part of it): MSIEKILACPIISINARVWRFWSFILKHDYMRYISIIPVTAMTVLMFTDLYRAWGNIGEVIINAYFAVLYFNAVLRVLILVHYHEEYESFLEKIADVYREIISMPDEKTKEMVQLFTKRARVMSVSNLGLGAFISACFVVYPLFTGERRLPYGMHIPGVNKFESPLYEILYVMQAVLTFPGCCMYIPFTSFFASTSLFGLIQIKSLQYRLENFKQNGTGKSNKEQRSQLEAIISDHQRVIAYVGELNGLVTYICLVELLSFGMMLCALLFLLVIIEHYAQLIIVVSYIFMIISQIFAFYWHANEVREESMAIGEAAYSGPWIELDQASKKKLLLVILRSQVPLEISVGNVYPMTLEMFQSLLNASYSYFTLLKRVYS

The first assay addresses AaegOR9 (Aedes aegypti, UniProt Q177X5). In words: Two-electrode voltage clamp of Xenopus oocytes expressing AaegOR9-ORco (tuning curve and concentration-response). Format: cell-based. Conditions: 500 nM odorant; panel of 31 indole derivatives. On the procedure: The methodologies and protocols have been described in details elsewhere (Bohbot and Dickens, [2009]). AaegOr9 and Aaeg-ORco cRNAs (Bohbot et al., [2011]) were synthesized from linearized pSP64DV expression vectors using the mMESSAGE mMACHINE® SP6 kit (Life Technologies). Stage V-VII oocytes were harvested from Xenopus laevis females, mechanically separated, treated with collagenase (8 mg/mL, 30 min, 18°C) and rinsed in washing solution (96 mM NaCl, 2 mM KCl, 5 mM MgCl2 and 5 mM HEPES, pH 7.6). Oocytes were microinjected with 27.6 ng AaegOr9 and AaegORco cRNAs, incubated at 18°C for 3–4 days in ND96 solution (96 mM NaCl, 2 mM KCl, 5 mM MgCl2, 0.8 mM CaCl2 and 5 mM HEPES, pH 7.6), supplemented with 5% dialyzed horse serum, 50 μg/mL tetracycline, 100 μg/mL streptomycin and 550 μg/mL sodium pyruvate. Whole-cell currents were recorded using the two-microelectrode voltage-clamp technique. During recording sessions, the holding potential was maintained at −80 mV using an OC-725C oocyte clamp (Warner Instruments, LLC, Hamden, CT, USA). Oocytes placed in a RC-3Z oocyte recording chamber (Warner Instruments, LLC, Hamden, CT, USA) were exposed to odorants for 8 s. Current was allowed to return to baseline between odorant applications. Data acquisition and concentration-response analyses were carried out with a Digidata 1550A and the pCLAMP10 software (Molecular Devices, Sunnyvale, CA, USA), and analyzed using GraphPad Prism 7 (GraphPad Software Inc., La Jolla, CA, USA). Stock concentration of odorants (10^−2 M) were dissolved in ringer solution containing 2% dimethyl sulfoxide (DMSO) in order to solubilize the hydrophobic indolic compounds.
The response profile was established using multiple sessions, each including six compounds at a time and indole as an internal reference. […] All the response values were normalized to the indole reference in each recording session (Supplementary Figure 1).
For the establishment of the concentration-response curves, oocytes were exposed to increasing concentrations of indole, skatole and indole-3-carboxaldehyde (I3C; Supplementary Figure 2). Quantitative characterization of OR sensitivity was estimated using the averaged effective concentration at 50% of the maximal response (EC50) over the sample population. The data to establish the concentration response curve and EC50 of AaegOR10-skatole was extracted from a previous study (Bohbot and Dickens, [2012]).
We also included indole and skatole as references (Bohbot et al., [2011]). The screen was carried out using a low odorant concentration (500 nM) in order to mitigate the caveats associated with high ligand concentrations, including receptor adaptation, antagonist effects and technical artifacts such as broad molecular receptive ranges (Bohbot and Pitts, [2015]).
In general terms: Two-electrode voltage clamp holds a large cell at a set potential and records current.
With `OCc1c[nH]c2ccccc12` [Indole-3-carbinole], the “Ligand potency in AaegOR9 tuning curve (in words)” value (“Ligand potency” below) is “among the least potent ligands”.

For `CN(C)Cc1c[nH]c2ccccc12` [Gramine], the “Ligand potency” value is reported as “among the least potent ligands”.

As for `N#CCc1c[nH]c2ccccc12` [3-indole acetonitrile], the “Ligand potency” value was “next most potent ligands”.

Regarding `COC(=O)c1c[nH]c2ccccc12` [Methyl indole-3-carboxylate], the “Ligand potency” value is reported as “next most potent ligands”.

Consider `O=Cc1c[nH]c2ccccc12` [I3C, indole-3-carboxaldehyde], for which the “Ligand potency” value is “next most potent ligands”.

Staying with this assay, now noted: AaegOR9 tuning curve of Figure 1, 500 nM; 1 = most potent of 31.
For the molecule `O=C(O)c1c[nH]c2ccccc12` [Indole-3-carboxylic acid], the “Rank according to potency (No.)” value is given as 11.

As to `Oc1ccc2[nH]ccc2c1` [5-Hydroxyindole], the “Rank according to potency (No.)” value turned out to be 9.

For `O=C(O)CCc1c[nH]c2ccccc12` [Indole-3-propionic acid], the “Rank according to potency (No.)” value stood at 15.

Consider `OCc1c[nH]c2ccccc12` [Indole-3-carbinole], for which the “Rank according to potency (No.)” value was determined as 19.

For the molecule `c1ccc2c(c1)[nH]c1cnccc12` [Norharmane], the “Rank according to potency (No.)” value is given as 13.

Regarding `COC(=O)Cc1c[nH]c2ccccc12` [Methyl indole-3-acetate], the “Rank according to potency (No.)” value worked out at 25.

For `CN(C)Cc1c[nH]c2ccccc12` [Gramine], the “Rank according to potency (No.)” value is 27.

For `N#CCc1c[nH]c2ccccc12` [3-indole acetonitrile], the “Rank according to potency (No.)” value worked out at 4.

With `COc1ccc2c3c([nH]c2c1)C(C)=NCC3` [Harmaline], the “Rank according to potency (No.)” value is given as 20.

As for `O=C1Nc2ccccc2C1=O` [Isatin], the “Rank according to potency (No.)” value turned out to be 16.

Turning to `Oc1cccc2[nH]ccc12` [4-Hydroxyindole], the “Rank according to potency (No.)” value amounted to 7.

Turning to `NC(=O)Cc1c[nH]c2ccccc12` [Indole-3-acetamide], the “Rank according to potency (No.)” value was 23.

Take `OCCc1c[nH]c2ccccc12` [3-(2-Hydroxyethyl) indole]: the “Rank according to potency (No.)” value was 12.

As to `COc1ccc2[nH]c3c(c2c1)CCNC3` [Pinoline], the “Rank according to potency (No.)” value is on record as 31.

`O=S(=O)(O)Oc1c[nH]c2ccccc12` [Indoxyl sulfate potassium salt]: the “Rank according to potency (No.)” value came out at 30.

Take `O=C1/C(=C2\Nc3ccccc3C2=O)Nc2ccccc21` [Indigo]: the “Rank according to potency (No.)” value was 26.

For `COC(=O)c1c[nH]c2ccccc12` [Methyl indole-3-carboxylate], the “Rank according to potency (No.)” value is recorded as 5.

With `Cc1nccc2c1[nH]c1ccccc12` [Harmane], the “Rank according to potency (No.)” value came out at 6.

Regarding `O=C(O)C=Cc1c[nH]c2ccccc12` [3-Indoleacrylic acid], the “Rank according to potency (No.)” value was 18.

`O=Cc1c[nH]c2ccccc12` [I3C, indole-3-carboxaldehyde]: the “Rank according to potency (No.)” value is listed as 2.

Turning to `O=C(O)CCCc1c[nH]c2ccccc12` [Indole-3-butyric acid], the “Rank according to potency (No.)” value was determined as 22.

With `NCCc1c[nH]c2ccc(O)cc12` [Serotonin], the “Rank according to potency (No.)” value was determined as 29.

As for `c1ccc2c(Cc3c[nH]c4ccccc34)c[nH]c2c1` [3,3’-Diindolemethane], the “Rank according to potency (No.)” value turned out to be 8.

Take `ON=CCc1c[nH]c2ccccc12` [Indole-3-acetaldoxime]: the “Rank according to potency (No.)” value came out at 21.

For `C[C@H](NC(=O)Cc1c[nH]c2ccccc12)C(=O)O` [Indole-3-acetyl-L-alanine], the “Rank according to potency (No.)” value was determined as 17.

Regarding `c1ccc2ncccc2c1` [Quinoline], the “Rank according to potency (No.)” value stood at 14.

With `NCCc1c[nH]c2ccccc12` [Tryptamine], the “Rank according to potency (No.)” value is listed as 24.

`O=C1Cc2ccccc2N1` [2-Oxindole]: the “Rank according to potency (No.)” value turned out to be 10.

Regarding `O=C(O)Cc1c[nH]c2ccccc12` [3-Indole acetic acid], the “Rank according to potency (No.)” value was determined as 28.

In the next assay the test system is OR13-ORco.
Test: not given
Conditions: Helicoverpa armigera OR13-ORco; pheromone receptor; ref Liu et al., 2013; cited from earlier work. Details: method as in Liu et al., 2013.
Turning to `CCCC/C=C\CCCCCCCCCC=O` [Z1 1-16:Ald], the EC50 (as a rule, the concentration that produces a half-maximal response) is 3400 nM.

The next assay deals with OR01-ORco.
Test: not given
Set-up: method as in Mitsuno et al., 2008. Conditions: Plutella xyllostella OR01-ORco; pheromone receptor; ref Mitsuno et al., 2008; cited from earlier work.
Take `CCCC/C=C\CCCCCCCCCC=O` [Z1 1-16:Ald]: the EC50 is 880 nM.

The test system of another assay is OR06-Orco.
Test: not given
Set-up: method as in Wanner et al., 2010. The note with it: Ostrinia nubilalis OR06-Orco; pheromone receptor; ref Wanner et al., 2010; cited from earlier work.
Regarding `CC/C=C\CCCCCCCCCCOC(C)=O` [Z1 1-14:OAc], the EC50 is 860 nM.

For the next assay, the system named is OR10-ORco.
Test: not given
Set-up: method as in Xu et al., 2012. Conditions: Amyelois transitella OR10-ORco; pheromone receptor; ref Xu et al., 2012; cited from earlier work.
Consider `CC/C=C\C=C/CCCCCCCCCC=O` [Z1 1Z13-16:Ald], for which the EC50 is 499 nM.

The next assay relates to OR13-ORco.
Test: not given
Set-up: method as in Wang et al., 2011. Conditions: Heliothis virescens OR13-ORco; pheromone receptor; ref Wang et al., 2011; cited from earlier work.
Regarding `CCCC/C=C\CCCCCCCC=O` [Z9-14:Ald], the EC50 was 240 nM.

With `CCCC/C=C\CCCCCCCCCC=O` [Z1 1-16:Ald], the EC50 is 367 nM.

Another assay relates to OR11-ORco.
Test: not given
Set-up: method as in Wanner et al., 2007. Conditions: Apis mellifera OR11-ORco; pheromone receptor; ref Wanner et al., 2007; cited from earlier work.
Take `CC(=O)CCCCCC=CC(=O)O` [9-oxo-2-decenoic acid]: the EC50 was 280 nM.

For the next assay, the system named is OR04-ORco.
Test: not given
Set-up: method as in Sun et al., 2013. Conditions: Plutella xyllostella OR04-ORco; pheromone receptor; ref Sun et al., 2013; cited from earlier work.
For the molecule `CCCC/C=C\CCCCCCCCOC(C)=O` [Z9-14: OAc], the EC50 is 243 nM.

Another assay concerns OR01-ORco.
Test: not given
Set-up: method as in Xu et al., 2012. The note with it: Bombyx mori OR01-ORco; pheromone receptor; ref Xu et al., 2012; cited from earlier work.
For `CCC/C=C\C=C\CCCCCCCCCO` [E10,Z12-16:OH (Bombykol), Bombykol], the EC50 is 45.4 nM.

Another assay concerns OR03-ORco.
Test: not given
Details: method as in Leary et al., 2012. The note with it: Ostrinia furnacalis OR03-ORco; pheromone receptor; ref Leary et al., 2012; cited from earlier work.
As for `CC/C=C\CCCCCCCCCCOC(C)=O` [Z1 1-14:OAc], the EC50 is 25 nM.

Another assay relates to OR56-ORco.
Test: not given
Conditions: Bombyx mori OR56-ORco; kairomone receptor; ref Tanaka et al., 2009; cited from earlier work. Details: method as in Tanaka et al., 2009.
Consider `CC/C=C\CC1=C(C)CCC1=O` [Z-jasmone], for which the EC50 was 6000 nM.

For the next assay, the system named is OR12-ORco.
Test: not given
Set-up: method as in Zhang et al., 2013. The note with it: Spodoptera litura OR12-ORco; kairomone receptor; ref Zhang et al., 2013; cited from earlier work.
Take `CC/C=C\CCOC(C)=O` [Z3-6:OAc]: the EC50 was 339 nM.

For a further assay, the system named is OR03-ORco.
Test: not given
Set-up: method as in Liu et al., 2014. The note with it: Spodoptera exigua OR03-ORco; kairomone receptor; ref Liu et al., 2014; cited from earlier work.
Regarding `C=CC(=C)CC/C=C(\C)CCC=C(C)C` [E-b-farnesene], the EC50 was 300 nM.

For another assay, the system named is OR65-ORco.
Test: not given
Set-up: method as in Wang et al., 2010. Conditions: Anopheles gambiae OR65-ORco; kairomone receptor; ref Wang et al., 2010; cited from earlier work.
As to `C=CCc1ccc(O)c(OC)c1` [Eugenol], the EC50 is 222 nM.

Another assay deals with OR08-ORco.
Test: not given
Details: method as in Bohbot et al., 2009. Conditions: Aedes aegypti OR08-ORco; kairomone receptor; ref Bohbot et al., 2009; cited from earlier work.
Regarding `C=C[C@H](O)CCCCC` [(R)-(−)-1-octen-3-ol], the EC50 was 158 nM.
